According to patent US20050119337A1, “Methods of application of Schisandrin B in the preparation of anticancer medications” (priority 2003, published 2005):

Tests used:
[1] = tested on: human leukemia MDR cell line K562/adr; test: Reversal of drug resistance of K562/adr, MTT assay, 72 h; assay type: cell-based; conditions: K562/adr
Method: (§1) In this embodiment, the IC50 of anticancer drugs in the presence or absence of Schisandrin B toward MDR cells was determined.
(§2) MTT assays were carried out in triplicate against human leukemia MDR cell line K562/adr and human epidermoid carcinoma MDR cell line KBV200. MTT assays as described previously (X. Hu, et al., Chemotherapy 41:296-305 (1995)) were used to determine the cytotoxicity of each anticancer drug in the presence or absence of Schisandrin B or verapmil.
Cells were treated with specific anticancer drugs as set forth therein. “Ctrl” represents control cells treated with anticancer drugs in the absence of Schisandrin B or verapamil. “SchB” represents cells treated with anticancer drugs in the presence of Schisandrin B (10 μg/ml).

[2] = tested on: human epidermoid carcinoma MDR cell line KBV200; test: Reversal of drug resistance of KBV200, MTT assay, 72 h; assay type: cell-based
Method: as §1, §2
Cells were treated with specific anticancer drugs as set forth therein. […] “SchB” represents cells treated with anticancer drugs in the presence of Schisandrin B (10 μg/ml).

K562/vcr = test: Reversal of drug resistance, MTT assay, 48 h; assay type: cell-based; conditions: for increase of sensitivity of K562/vcr to doxorubicin: FIG. 1
Method: To illustrate a method for reversal of drug resistance by application of Schisandrin B, cell lines K562/adr, K562/vcr (X. […] H. […] Cells were cultured in RPMI-1640 medium containing 10% fetal calf serum. […] The logarithmic growing cells were seeded into a 96 well plate (20,000 cells/well). Specific anticancer drugs (set forth in Table 1) and Schisandrin B in combination were added into the wells containing the select cell lines. […] Cell viability was assessed by MTT assays as described in X.

KBV200 [3] = test: Apoptosis induced by doxorubicin, Hoechst 33342/propidium iodide staining; assay type: cell-based, human; conditions: KBV200, A5 + S10: doxorubicin 5 μg/ml and Schisandrin B 10 μg/ml, 24 hours
Text: (§3) Cells were collected and stained with fluorescent dyes Hoechst 33342 and propidium iodide. Hoechst 33342 stains the nuclei of cells with the color blue, and propidium iodide exclusively stains dead cells with the color of red. Accordingly, while Hoechst 33342 only stained the living cells blue, the dead cells were stained by both dyes with the colors of yellow, orange or red. The percentage of dead cells was counted under fluorescent microscope.

KB = test: as above; assay type: cell-based
Text: as §3

KBV200-implanted tumor = test: In vivo reversal of drug resistance, KBV200-implanted tumor; design: species or system Balb/c nude mice; conditions: for MST / T/C: Balb/c nude mice bearing KBV200-implanted tumor; for MST: doxorubicin 5 mg/kg i.v., Schisandrin B 50 mg/kg gastric intubation; for T/C: survival period in the test group / control group x 100
Method: Thirty nine Balb/c nu/nu female mice were inoculated subcutaneously with KBV200 cells (5×10^6 KBV200 cells/each mouse) on day 0. […] Mean body weights were recorded daily. All mice were observed once per day (or more) for mortality and signs of ill health (i.e., weight loss, change in appetite, or behavioral changes). Therapeutic comparisons were made between control and treatment groups by determining the tumor size. Tumor size was monitored approximately every other day by caliper measurements and calculated according to the formula [Tumor weight=(length×width^2)÷2]. The median survival times (MST) and the percent increase in life span (% ILS) were calculated as: % ILS=[(MSTtreatment/MSTcontrol)−1]×100.
“MST” represents median survival time. The survival rate (T/C %) was calculated by following equation: T/C(%)=[Average survival period in the test group/average survival period in the control group]×100. *P<0.05 compared to saline, vehicle, or Schisandrin B alone.

KBV200 [4] = test: Cell cycle distribution and hypodiploid cells, propidium iodide flow cytometry; assay type: cell-based, human
Method: The test cells were also analyzed by flow cytometry after being subjected to propidium iodide staining.

KBV200 cells [5] = test: DNA fragmentation, agarose electrophoresis; assay type: cell-based, human; conditions: FIG. 13
Text: The DNA of above cells was also extracted and subjected to agarose electrophoresis.

P-glycoprotein [6] = target: T1, P-glycoprotein (Homo sapiens, UniProt P08183); test: Intracellular doxorubicin accumulation, flow cytometry; assay type: cell-based; conditions: doxorubicin 5 μg/ml, Schisandrin B 10 μg/ml, 60-120 minutes, FIG. 3
T1 construct: The cell line selected was MDR cancer cell K562/adr and its parental drug sensitive cell K562; endogenous in cells; host or cells: K562/adr (doxorubicin-selected human leukemia MDR cell line)
Method: The cell line selected was MDR cancer cell K562/adr and its parental drug sensitive cell K562. Cells were cultured in RPMI-1640 medium containing 10% fetal calf serum in cell-culture flasks.

K562/adr = test: Reversal of resistance to doxorubicin (FIG. 1); assay type: cell-based, human; conditions: in the presence of Schisandrin B
Method: To illustrate a method for reversal of drug resistance by application of Schisandrin B, cell lines K562/adr, K562/vcr (X. Hu et al., Chemotherapy 41:296-305 (1995)), and KBv200 (X. H. Zhang et al., Yao Xue Xue Bao 29:246-251 (1994)) were selected for use because these particular cell lines are characteristic of overexpression of P-glycoprotein. Cells were cultured in RPMI-1640 medium containing 10% fetal calf serum. The test compound Schisandrin B was dissolved in dimethyl sulfoxide (DMSO) (10 mg/ml as stock). The logarithmic growing cells were seeded into a 96 well plate (20,000 cells/well). Specific anticancer drugs (set forth in Table 1) and Schisandrin B in combination were added into the wells containing the select cell lines. Controls for each anticancer drug type without Schisandrin B were also seeded into the 96 well plate. […] Cell viability was assessed by MTT assays as described in X. Hu et al., Chemotherapy 41:296-305 (1995).

[7] = tested on: normal human cells (PBMC, fibroblast cells, bone marrow stromal cell D6p4, liver cell HL-7702); test: Cytotoxicity of Schisandrin B, MTT assay, 48 h; assay type: cell-based; conditions: 10 and 20 μg/ml, FIG. 2
Method: (§4) To illustrate the cytotoxicity of Schisandrin B according to the present disclosure, cell lines selected for use include cancer cell lines K562, K562/Adr, K562/vcr; primary cultured cells, including human peripheral blood mononuclear cells (PBMC) and human fibroblast cells; noncancer cell lines, including human bone marrow stromal cell D6p4 and human liver cell HL-7702. Cells were cultured in RPMI-1640 medium containing 10% fetal calf serum. The logarithmic growing cells were seeded into a 96 well plate (20,000 cells/well).

K562 cells = test: Cytotoxicity of Schisandrin B, MTT assay, 48 h; assay type: cell-based; conditions: 10 and 20 μg/ml, FIG. 2
Method: as §4

[8] = tested on: MDR cells (K562/Adr, K562/vcr); test: Cytotoxicity of Schisandrin B, MTT assay, 48 h; assay type: cell-based; conditions: 10 and 20 μg/ml, FIG. 2
Method: as §4

P-glycoprotein [9] = target: T1, P-glycoprotein; test: Rh-123 accumulation, flow cytometry; assay type: cell-based; conditions: Rh-123 2 μg/ml, Schisandrin B 10 μg/ml, FIG. 6
Method: P-glycoprotein functions as a drug pump that unilaterally pumps the anticancer drugs out of MDR cancer cells. Inhibition of P-glycoprotein results in an increase of the intracellular drug concentration within cancer cells. The inhibition of P-glycoprotein is assessed by analyzing the anticancer drug concentration within the test cells in the presence or absence of Schisandrin B. […] Cells were collected at intervals of 15, 30, 60, 90, and 120 minutes after incubation. […] At least 50,000 cells were analyzed for each sample.

P-glycoprotein [10] = target: T1, P-glycoprotein; test: [3H]Azidopine photoaffinity labeling of P-glycoprotein; assay type: binding; conditions: KBV200 cytoplasmic membranes, 1.0 μM azidopine, FIG. 14
Text: To illustrate that Schisandrin B physically interacts with P-glycoprotein according to the present disclosure, [^3H]Azidopine Photoaffinity Labeling of P-glycoportein in the presence or absence of Schisandrin B was used. [^3H]Azidopine is a chemical having unique properties that enable it to interact with P-glycoprotein. If Schisandrin B is also able to interact with P-glycoprotein, the binding of P-glycoprotein with [^3H]Azidopine would be reduced in the presence of Schisandrin B.
The cytoplasmic membranes (enriched with P-glycoprotein) of MDR cell KBV200 were prepared according to the methods as described in May GL, et al., Int. J. Cancer 42:728-733(1988) and Hyafil F, et al., Cancer Res. 53:4595-4602(1993). Membranes were incubated with Schisandrin B for 40 minutes in the dark, followed by 1 hour incubation with 1.0 μM [H]azidopine. After UV irradiation for 2 minutes, the photolabeled membranes were subjected to SDS-PAGE on a 7.5% gel, followed by fluorography.

KBV200 cells [11] = test: Intracellular distribution of daunorubicin and Rh-123, fluorescent microscope; assay type: cell-based, human; conditions: KBV200, Schisandrin B 5 and 10 μg/ml, 1 hour, FIGS. 10 and 11
Method: To illustrate the effects of Schisandrin B on the intracellular distribution in MDR cancer cells, MDR cell KBV200 and its parental drug sensitive cell line KB were selected for use. […] The respective cultures were incubated at 37° C. for 1 hour, washed with ice-cold PBS, and the cells were observed under fluorescent microscope.

P-glycoprotein [12] = target: T1, P-glycoprotein; test: Daunorubicin accumulation, flow cytometry; assay type: cell-based; conditions: daunorubicin 2 μg/ml, Schisandrin B 10 μg/ml, FIG. 5
Method: P-glycoprotein functions as a drug pump that unilaterally pumps the anticancer drugs out of MDR cancer cells. Inhibition of P-glycoprotein results in an increase of the intracellular drug concentration within cancer cells. The inhibition of P-glycoprotein is assessed by analyzing the anticancer drug concentration within the test cells in the presence or absence of Schisandrin B. […] Cells were collected at intervals of 15, 30, 60, 90, 120, and 160 minutes after incubation.

[13] = KBV200, A1: doxorubicin 1 μg/ml
[14] = KBV200, A5: doxorubicin 5 μg/ml
[15] = KBV200, doxorubicin 1 μg/ml and Schisandrin B 10 μg/ml
[16] = KBV200, doxorubicin 5 μg/ml and Schisandrin B 10 μg/ml

T1 sequence (P08183 whole entry): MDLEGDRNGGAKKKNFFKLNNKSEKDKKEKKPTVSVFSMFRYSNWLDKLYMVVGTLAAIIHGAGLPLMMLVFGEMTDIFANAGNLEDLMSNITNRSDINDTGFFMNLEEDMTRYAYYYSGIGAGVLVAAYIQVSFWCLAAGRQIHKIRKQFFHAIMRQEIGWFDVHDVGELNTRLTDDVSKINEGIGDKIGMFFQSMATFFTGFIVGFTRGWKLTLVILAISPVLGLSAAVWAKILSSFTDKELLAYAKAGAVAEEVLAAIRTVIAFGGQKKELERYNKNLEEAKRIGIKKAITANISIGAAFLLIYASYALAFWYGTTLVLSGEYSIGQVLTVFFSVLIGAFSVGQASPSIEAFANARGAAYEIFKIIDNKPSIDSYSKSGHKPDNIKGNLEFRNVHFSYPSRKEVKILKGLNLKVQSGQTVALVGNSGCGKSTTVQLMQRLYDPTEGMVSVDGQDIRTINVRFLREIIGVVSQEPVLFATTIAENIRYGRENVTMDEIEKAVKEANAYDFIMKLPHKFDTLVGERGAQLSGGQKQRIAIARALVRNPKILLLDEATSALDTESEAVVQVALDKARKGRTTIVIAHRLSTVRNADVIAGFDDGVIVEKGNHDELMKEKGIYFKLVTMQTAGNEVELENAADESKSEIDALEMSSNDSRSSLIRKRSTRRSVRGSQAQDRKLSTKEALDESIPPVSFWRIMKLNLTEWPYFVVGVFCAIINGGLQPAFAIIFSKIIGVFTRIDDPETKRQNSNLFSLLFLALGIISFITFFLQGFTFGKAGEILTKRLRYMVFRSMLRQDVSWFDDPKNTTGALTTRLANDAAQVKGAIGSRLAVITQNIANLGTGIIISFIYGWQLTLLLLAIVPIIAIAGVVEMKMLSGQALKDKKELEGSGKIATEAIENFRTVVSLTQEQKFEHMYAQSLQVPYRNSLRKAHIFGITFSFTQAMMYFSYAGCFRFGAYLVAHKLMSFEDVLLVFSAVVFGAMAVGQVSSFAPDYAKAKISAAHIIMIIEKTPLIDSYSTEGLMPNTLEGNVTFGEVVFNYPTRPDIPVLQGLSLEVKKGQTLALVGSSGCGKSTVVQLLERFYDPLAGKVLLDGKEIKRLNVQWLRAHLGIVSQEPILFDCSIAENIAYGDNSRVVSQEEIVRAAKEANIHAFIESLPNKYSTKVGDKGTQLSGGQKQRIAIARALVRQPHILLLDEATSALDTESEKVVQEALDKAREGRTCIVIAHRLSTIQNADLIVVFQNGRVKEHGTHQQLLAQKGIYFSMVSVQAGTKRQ

COc1cccc2c1C(=O)c1c(O)c3c(c(O)c1C2=O)C[C@@](O)(C(=O)CO)C[C@@H]3O[C@H]1C[C@H](N)[C@H](O)[C@H](C)O1 [Doxorubicin, doxorubicin]
IC50 ([1]; Homo sapiens, anticancer drug alone, 72 h, read-out: IC50 Control): 1.42 ± 0.246 µg/mL | RF (Schisandrin B) ([1]; IC50 in the absence divided by IC50 in the presence of Schisandrin B (10 μg/ml)): 20.57 | RF (verapamil) ([1]; IC50 in the absence divided by IC50 in the presence of verapamil (6 μg/ml)): 10.76 | IC50 Schisandrin B ([1]; anticancer drug in the presence of Schisandrin B (10 μg/ml)): 0.0691 ± 0.0137 µg/mL | IC50 verapamil ([1]; anticancer drug in the presence of verapamil (6 μg/ml)): 0.1324 ± 0.0086 µg/mL | IC50 ([2]; Homo sapiens, anticancer drug alone, KBV200, 72 h, read-out: IC50 Control): 0.327 ± 0.213 µg/mL | RF (verapamil) ([2]; IC50 in the absence / IC50 in the presence of verapamil (6 μg/ml), KBV200): 10.11 | IC50 Schisandrin B ([2]; anticancer drug in the presence of Schisandrin B (10 μg/ml), KBV200): 0.0691 ± 0.0137 µg/mL | IC50 verapamil ([2]; anticancer drug in the presence of verapamil (6 μg/ml), KBV200): 0.0324 ± 0.0086 µg/mL | IC50 (K562/vcr; Homo sapiens, anticancer drug toward K562/vcr in the absence of Schisandrin B, 48 h, read-out: IC50 Control): 4.89 ± 0.21 µg/mL | RF (Reversal Folds) (K562/vcr; IC50 in the absence of Schisandrin B divided by IC50 in the presence of Schisandrin B (10 μg/ml)): 25.7 | IC50 Schisandrin B (K562/vcr; anticancer drug toward K562/vcr in the presence of Schisandrin B (10 μg/ml), 48 h): 0.19 ± 0.01 µg/mL | % apoptosis (KBV200 [3]): >90% | % apoptosis (KB; A1: doxorubicin 1 μg/ml): >90% | % apoptosis (KB; A5: doxorubicin 5 μg/ml): >90% | tumor sizes versus control groups (KBV200-implanted tumor; Balb/c nu/nu mice, KBV200 s.c., doxorubicin 5 mg/kg via tail vein, Schisandrin B via gastric intubation, days 11, 14, 18, 21, 25, FIG. 15): not significantly different | MST (KBV200-implanted tumor): not significantly prolonged | T/C (KBV200-implanted tumor): 111.1% | Cell cycle distribution G0/G1 (KBV200 [4]; [13]): 44.76% | Cell cycle distribution G2/M (KBV200 [4]; [13]): 10.14% | Cell cycle distribution S (KBV200 [4]; [13]): 45.09% | hypodiploid % (KBV200 [4]; [13]): 1.21% | Cell cycle distribution G0/G1 (KBV200 [4]; [14]): 48.03% | Cell cycle distribution G2/M (KBV200 [4]; [14]): 9.60% | Cell cycle distribution S (KBV200 [4]; [14]): 42.37% | hypodiploid % (KBV200 [4]; [14]): 7.51% | Cell cycle distribution G0/G1 (KBV200 [4]; [15]): 54.04% | Cell cycle distribution G2/M (KBV200 [4]; [15]): 5.66% | Cell cycle distribution S (KBV200 [4]; [15]): 40.30% | hypodiploid % (KBV200 [4]; [15]): 24.10% | Cell cycle distribution G0/G1 (KBV200 [4]; [16]): 58.94% | Cell cycle distribution G2/M (KBV200 [4]; [16]): 1.70% | Cell cycle distribution S (KBV200 [4]; [16]): 39.36% | hypodiploid % (KBV200 [4]; [16]): 70.31% | DNA fragmentation (KBV200 cells [5]; KBV200, doxorubicin combined with Schisandrin B (10 μg/ml)): demonstrated DNA fragmentation | DNA fragmentation (KBV200 cells [5]; KBV200, doxorubicin in the absence of Schisandrin B): did not show the similar DNA fragmentation

COc1cc2c(c(OC)c1OC)-c1c(cc3c(c1OC)OCO3)C[C@@H](C)[C@@H](C)C2 [Schisandrin B]
intracellular doxorubicin accumulation in K562/adr (P-glycoprotein [6]): restored intracellular doxorubicin accumulation | potency in reversing vincristine resistance of KBV200 relative to verapamil ([2]; Schisandrin B versus verapamil): about 5 folds | increase of sensitivity of K562/vcr to doxorubicin (K562/vcr; Schisandrin B 1 μg/ml): about 5 folds | increase of sensitivity of K562/vcr to doxorubicin (K562/vcr; Schisandrin B 10 μg/ml): ~12 folds | increase of sensitivity of K562/vcr to doxorubicin (K562/vcr; Schisandrin B 20 μg/ml): ~18 folds | sensitivity of K562/adr to doxorubicin (K562/adr): greatly increased the sensitivity | cytotoxicity toward normal human cells [7]: does not demonstrate cytotoxicity | cytotoxicity toward K562 cells (K562 cells): does demonstrate cytotoxicity | cytotoxicity toward MDR cells [8]: does not demonstrate cytotoxicity | intracellular Rh-123 accumulation in KBV200 (P-glycoprotein [9]): restored intracellular Rh-123 accumulation | MST (KBV200-implanted tumor): 21.2 days | T/C (KBV200-implanted tumor): 101.9% | [3H]Azidopine binding with P-glycoprotein (P-glycoprotein [10]): inhibited | intracellular distribution of daunorubicin and Rh-123 in MDR cancer cells (KBV200 cells [11]): partially restored | intracellular daunorubicin accumulation in K562/adr (P-glycoprotein [12]): restored intracellular daunorubicin accumulation
